Literature values, collected in US20170209579A1, “NON-INVASIVE RADIOFREQUENCY FIELD TREATMENT FOR CANCER THERAPY” (Baylor College of Medicine, priority 2014, published 2017).

Test system: tumor
Conditions: Monsky et al.; cited from earlier work

COc1cccc2c1C(=O)c1c(O)c3c(c(O)c1C2=O)C[C@@](O)(C(=O)CO)C[C@@H]3O[C@H]1C[C@H](N)[C@H](O)[C@H](C)O1 [free doxorubicin]
accumulation and retention in the tumor after conventional RFA: not
